# Experimental data reported in PMC11638278, “Ascorbate: a forgotten component in the cytotoxicity of Cu(II) ATCUN peptide complexes” (Journal of Biological Inorganic Chemistry, 2024).
# Tested on: AGS cells (gastric adenocarcinoma)
# Assay: MTT cell viability assay on AGS cells
# Format: cell-based
# Conditions: AscH− 100 µM alone (negative control), 48 h
# Procedure: The complexes 1–3, Cu-GGH, CuCl2 and the peptides a-c, GGH alone were tested on three different cancer cell lines towards their cytotoxic activity: HeLa cells (cervical adenocarcinoma), AGS and NCI-N87 cells (both gastric adenocarcinoma). The cells were grown and treated with compounds in RPMI Medium 1640 (1×) supplemented with 10% fetal calf serum in a humidified incubator with 5% CO2 at 37 °C. MTT cell viability assays were carried out at two concentrations (100 and 250 µM) at least in duplicate (in AGS cells additionally in two independent experiments). The Annexin V-FITC apoptosis assay was carried out at a compound concentration of 500 µM in duplicate in two independent experiments.
# For the MTT cell viability assay (Sigma Aldrich), cells were seeded at 10 000 (HeLa and AGS) and 20 000 (NCI-N87) cells/well in 96-well plates and left to settle for 24 h. […] Quantification of the formazan was ensured by a Spectramax M5 (Molecular Devices) microplate reader at an absorbance of 470 nm to determine the percentage of cell-growth inhibition of each sample (with compound) relative to a negative control (no compound). […]
smiles,measurement,value
"O=C1O[C@H]([C@@H](O)CO)C(O)=C1O [AscH^−, sodium ascorbate]",cytotoxicity of the additive alone,does not show significant cytotoxicity
